PubChem BioAssay (NCI)
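Assay format: 96-well plates, 48-hour exposure. GI50 is the concentration that inhibits growth by half. TGI is the concentration that stops growth completely.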

Tests used:
Test in all cases: growth of human tumour cells (NCI), 48 h
[1] = tested on: K-562 leukemia
[2] = tested on: BT-549 breast
[3] = tested on: HOP-92 NSCLC
[4] = tested on: LOX IMVI melanoma
[5] = tested on: KM12 colon
[6] = tested on: EKVX NSCLC
[7] = tested on: HOP-62 NSCLC
[8] = tested on: SN12C renal
[9] = tested on: RXF 393 renal
[10] = tested on: HCT-15 colon
[11] = tested on: SK-MEL-28 melanoma
[12] = tested on: UACC-257 melanoma
[13] = tested on: NCI-H460 lung
[14] = tested on: TK-10 renal
[15] = tested on: OVCAR-8 ovarian
[16] = tested on: MCF7 breast
[17] = tested on: M14 melanoma
[18] = tested on: COLO 205 colon
[19] = tested on: MDA-MB-435
[20] = tested on: A549 NSCLC
[21] = tested on: OVCAR-4 ovarian
[22] = tested on: NCI-H522 lung
[23] = tested on: SF-539 CNS
[24] = tested on: HS 578T breast
[25] = tested on: 786-0 renal
[26] = tested on: A498 renal
[27] = tested on: HL-60(TB) leukemia
[28] = tested on: HCT-116 colon
[29] = tested on: SNB-75 CNS
[30] = tested on: OVCAR-3 ovarian
[31] = tested on: UO-31 renal
[32] = tested on: T-47D breast
[33] = tested on: SW-620 colon
[34] = tested on: CAKI-1 renal
[35] = tested on: PC-3 prostate
[36] = tested on: SR leukemia
[37] = tested on: NCI-H226 lung
[38] = tested on: SF-268 CNS
[39] = tested on: SK-MEL-2 melanoma
[40] = tested on: SNB-19 CNS
[41] = tested on: CCRF-CEM leukemia
[42] = tested on: SF-295 CNS
[43] = tested on: DU-145 prostate
[44] = tested on: HT29 colon
[45] = tested on: NCI-H23 lung
[46] = tested on: SK-MEL-5 melanoma
[47] = tested on: MALME-3M melanoma
[48] = tested on: NCI/ADR-RES ovarian
[49] = tested on: IGROV1 ovarian
[50] = tested on: HCC-2998 colon
[51] = tested on: U251 CNS
[52] = tested on: RPMI-8226 leukemia
[53] = tested on: MDA-MB-231 breast
[54] = tested on: UACC-62 melanoma
[55] = tested on: OVCAR-5 ovarian
[56] = tested on: ACHN renal
[57] = tested on: SK-OV-3 ovarian
[58] = tested on: MOLT-4 leukemia

Compound: COc1ccc(C2C(C#N)=C(/N=C/c3ccc(Cl)cc3)Oc3c2sc2c(C)cccc32)cc1 (stereo not given)
- GI50 [1]: 0.404 µM
- TGI [1]: > 100 µM
- GI50 [2]: 1.21 µM
- TGI [2]: 18.8 µM
- GI50 [3]: 1.69 µM
- TGI [3]: 18.1 µM
- GI50 [4]: 1.89 µM
- TGI [4]: 13.4 µM
- GI50 [5]: 1.4 µM
- TGI [5]: 12.6 µM
- GI50 [6]: 3.87 µM
- TGI [6]: 17.3 µM
- GI50 [7]: 4.07 µM
- TGI [7]: 19.7 µM
- GI50 [8]: 2.79 µM
- TGI [8]: 12.7 µM
- GI50 [9]: 2.12 µM
- TGI [9]: 10.5 µM
- GI50 [10]: 0.731 µM
- TGI [10]: 10.5 µM
- GI50 [11]: 1.51 µM
- TGI [11]: 18.8 µM
- GI50 [12]: 12.3 µM
- TGI [12]: 31.5 µM
- GI50 [13]: 1.71 µM
- TGI [13]: 12.8 µM
- GI50 [14]: 12.5 µM
- TGI [14]: 37.1 µM
- GI50 [15]: 2.87 µM
- TGI [15]: 11.4 µM
- GI50 [16]: 0.549 µM
- TGI [16]: 21.4 µM
- GI50 [17]: 1.59 µM
- TGI [17]: 10.8 µM
- GI50 [18]: 2.59 µM
- TGI [18]: 6.96 µM
- GI50 [19]: 0.312 µM
- TGI [19]: 0.993 µM
- GI50 [20]: 2.22 µM
- TGI [20]: 28.9 µM
- GI50 [21]: 3.4 µM
- TGI [21]: 25.9 µM
- GI50 [22]: 0.247 µM
- TGI [22]: 0.858 µM
- GI50 [23]: 1.31 µM
- TGI [23]: 3.54 µM
- GI50 [24]: 2.44 µM
- TGI [24]: 19.1 µM
- GI50 [25]: 4.34 µM
- TGI [25]: 28.2 µM
- GI50 [26]: 12.6 µM
- TGI [26]: 27.5 µM
- GI50 [27]: 0.433 µM
- TGI [27]: 2.94 µM
- GI50 [28]: 1.55 µM
- TGI [28]: 13.4 µM
- GI50 [29]: 3.08 µM
- TGI [29]: 23.2 µM
- GI50 [30]: 0.753 µM
- TGI [30]: 3.69 µM
- GI50 [31]: 1.97 µM
- TGI [31]: 16 µM
- GI50 [32]: 1.77 µM
- TGI [32]: 23.1 µM
- GI50 [33]: 1.11 µM
- TGI [33]: 16.3 µM
- GI50 [34]: 4.03 µM
- TGI [34]: 22.3 µM
- GI50 [35]: 2.01 µM
- TGI [35]: 18.1 µM
- GI50 [36]: 0.413 µM
- TGI [36]: 20.6 µM
- GI50 [37]: 6.02 µM
- TGI [37]: 24.3 µM
- GI50 [38]: 4.28 µM
- TGI [38]: 21.2 µM
- GI50 [39]: 2.17 µM
- TGI [39]: 13 µM
- GI50 [40]: 3.57 µM
- TGI [40]: 16.7 µM
- GI50 [41]: 3.01 µM
- TGI [41]: > 100 µM
- GI50 [42]: 1.19 µM
- TGI [42]: 10.3 µM
- GI50 [43]: 3.2 µM
- TGI [43]: 14 µM
- GI50 [44]: 2.76 µM
- TGI [44]: 8.76 µM
- GI50 [45]: 2.34 µM
- TGI [45]: 12.6 µM
- GI50 [46]: 1.44 µM
- TGI [46]: 13.1 µM
- GI50 [47]: 2.28 µM
- TGI [47]: 19.8 µM
- GI50 [48]: 0.668 µM
- TGI [48]: 4.49 µM
- GI50 [49]: 2.27 µM
- TGI [49]: 17.4 µM
- GI50 [50]: 1.91 µM
- TGI [50]: 5.99 µM
- GI50 [51]: 2.96 µM
- TGI [51]: 14 µM
- GI50 [52]: 3.21 µM
- TGI [52]: 18.5 µM
- GI50 [53]: 2.73 µM
- TGI [53]: 13.8 µM
- GI50 [54]: 0.515 µM
- TGI [54]: 10.2 µM
- GI50 [55]: 2.81 µM
- TGI [55]: 12.4 µM
- GI50 [56]: 3.94 µM
- TGI [56]: 17.8 µM
- GI50 [57]: 3.12 µM
- TGI [57]: 17.5 µM
- GI50 [58]: 3.37 µM
- TGI [58]: 28.7 µM

Compound: Cc1ccc(NC(=O)Nc2nc3ccc([N+](=O)[O-])cc3s2)cc1
- GI50 [1]: 1.44 µM
- TGI [1]: 9.56 µM
- GI50 [2]: 2.02 µM
- TGI [2]: 5.88 µM
- GI50 [3]: 1.37 µM
- TGI [3]: 5.44 µM
- GI50 [4]: 2.36 µM
- TGI [4]: 5.96 µM
- GI50 [5]: 2.45 µM
- TGI [5]: 8.15 µM
- GI50 [6]: 2.75 µM
- TGI [6]: 10.9 µM
- GI50 [7]: 3.1 µM
- TGI [7]: 10.7 µM
- GI50 [8]: 2.54 µM
- TGI [8]: 12.5 µM
- GI50 [9]: 2.01 µM
- TGI [9]: 5.75 µM
- GI50 [10]: 2.37 µM
- TGI [10]: 9.19 µM
- GI50 [11]: 3.1 µM
- TGI [11]: 15.1 µM
- GI50 [12]: 1.82 µM
- TGI [12]: 6.78 µM
- GI50 [13]: 2.84 µM
- TGI [13]: 10.4 µM
- GI50 [14]: 2.94 µM
- TGI [14]: 11.6 µM
- GI50 [15]: 3.2 µM
- TGI [15]: 14 µM
- GI50 [16]: 1.99 µM
- TGI [16]: 7.77 µM
- GI50 [17]: 2.92 µM
- TGI [17]: 10.6 µM
- GI50 [18]: 1.91 µM
- TGI [18]: 3.84 µM
- GI50 [19]: 2.32 µM
- TGI [19]: 9.33 µM
- GI50 [20]: 2.79 µM
- TGI [20]: 10.5 µM
- GI50 [21]: 1.41 µM
- TGI [21]: 9.32 µM
- GI50 [22]: 1.14 µM
- TGI [22]: 5.21 µM
- GI50 [23]: 3.15 µM
- TGI [23]: 10.4 µM
- GI50 [24]: 3.02 µM
- TGI [24]: 13.9 µM
- GI50 [25]: 2.89 µM
- TGI [25]: 12.4 µM
- GI50 [26]: 1.41 µM
- TGI [26]: 4.38 µM
- GI50 [28]: 1.79 µM
- TGI [28]: 5.22 µM
- GI50 [29]: 1.95 µM
- TGI [29]: 6.27 µM
- GI50 [30]: 2.43 µM
- TGI [30]: 9.63 µM
- GI50 [31]: 2.51 µM
- TGI [31]: 10.5 µM
- GI50 [32]: 0.799 µM
- TGI [32]: 6.4 µM
- GI50 [33]: 2.93 µM
- TGI [33]: 10.7 µM
- GI50 [34]: 1.79 µM
- TGI [34]: 6.23 µM
- GI50 [35]: 2.14 µM
- TGI [35]: 8.83 µM
- GI50 [36]: 1.29 µM
- TGI [36]: 5.06 µM
- GI50 [37]: 2.75 µM
- TGI [37]: 12.3 µM
- GI50 [38]: 3.52 µM
- TGI [38]: 16 µM
- GI50 [39]: 2.19 µM
- TGI [39]: 6.03 µM
- GI50 [40]: 2.7 µM
- TGI [40]: 13.4 µM
- GI50 [41]: 2.13 µM
- TGI [41]: 7.71 µM
- GI50 [42]: 1.92 µM
- TGI [42]: 5.21 µM
- GI50 [43]: 3.26 µM
- TGI [43]: 11.7 µM
- GI50 [44]: 3.28 µM
- TGI [44]: 11.6 µM
- GI50 [45]: 1.89 µM
- TGI [45]: 6.78 µM
- GI50 [46]: 1.42 µM
- TGI [46]: 3.51 µM
- GI50 [47]: 2.66 µM
- TGI [47]: 7.71 µM
- GI50 [48]: 2.5 µM
- TGI [48]: 7.79 µM
- GI50 [49]: 3.59 µM
- TGI [49]: 14.3 µM
- GI50 [50]: 2.6 µM
- TGI [50]: 10.1 µM
- GI50 [51]: 2.34 µM
- TGI [51]: 10.9 µM
- GI50 [52]: 1.26 µM
- TGI [52]: 3.77 µM
- GI50 [53]: 3.04 µM
- TGI [53]: 10.3 µM
- GI50 [54]: 2.77 µM
- TGI [54]: 13.7 µM
- GI50 [55]: 4.32 µM
- TGI [55]: 18.3 µM
- GI50 [56]: 2.78 µM
- TGI [56]: 11.4 µM
- GI50 [57]: 2.91 µM
- TGI [57]: 10.1 µM
- GI50 [58]: 2.09 µM
- TGI [58]: 6.33 µM
